Entries after “also recorded” stand apart in the source; their conditions may differ.
Key:
[1] = 14-day continuous intravenous infusion toxicity study in the rat; format: in vivo, Sprague Dawley rats
[2] = tested on: C8161 human melanoma cells; assay: Experimental metastasis of C8161 cells treated ex vivo (lung nodules, CD-1 athymic nude mice); format: in vivo; conditions: cells treated 4 hr with 0.2 μM plus Lipofectin before tail vein injection; 4 weeks; vs lipofectin alone
Method: A. Experimental metastasis of C8161 human melanoma cells treated with SEQ ID NO:1 was estimated as follows. Aliquots of C8161 cell suspension were seeded into 100 mm tissue culture dishes at a density of 2×10^6 and incubated overnight at 37° C. in α-MEM medium supplemented with 10% FBS. Following a wash with 10 ml of PBS, cells were treated for 4 hr with 0.2 μM of SEQ ID NO:1 in the presence of a cationic lipid (Lipofectin reagent, final concentration, 10 μg/ml, Gibco BRL) or with lipofectin alone (CONTROL) as a control. SEQ ID NO:1 was removed by washing the cells once with PBS. Cells were then collected by trypsinization and centrifugation. Approximately 1×10^5 cells suspended in 0.2 ml of PBS were injected into the tail veins of 6-8 week-old CD-1 athymic female nude mice. Estimates of the number of lung tumors were made 4 weeks later by counting metastatic foci formed on the excised lung surface, see FIG. 12A. Bars represent mean number of tumor nodules in lungs obtained from 7-9 animals per experimental group.

[3] = rat, in vivo
[4] = tested on: Human taxol-resistant promyelocytic leukemia cells (HL-60); assay: Taxol-resistant promyelocytic leukemia (HL-60) growth in SCID mice; format: in vivo; conditions: SEQ ID NO:1 10 mg/kg i.v. every other day, taxol 10 mg/kg i.p. once a week
Method: Human taxol-resistant promyelocytic leukemia cells (HL-60) (7×10^6 cells in 100 μl of PBS) were injected into the right flank of 6-7 weeks old female SCID mice. After the size of tumor reached an approximate volume of 100 mm^3, 10 days post tumor cell injection, SEQ ID NO:1 was administered by bolus infusion into the tail vein every other day at 10 mg/kg. Control animals received saline alone for the same period. The anti-tumor effect of SEQ ID NO:1 was further compared to that of taxol. Taxol was administered i.p. once a week at a dose of 10 mg/kg. Anti-tumor activity was estimated by the inhibition of tumor volume, which was measured with caliper (FIG. 17A). Each point represents mean tumor volume calculated from 10 animals per experimental group. In addition animals were sacrificed and tumor weights taken at the end of the study.

H460 (lung) = assay: Colony forming ability, H460; format: cell-based, human; conditions: 0.2 μM antisense oligonucleotide/lipofectin, 4 hours
Method: The effect of SEQ ID NO:1 on the colony forming ability were evaluated in the following human tumor cell lines:
Tumor cells were washed in 5 ml of phosphate buffered saline, pH 7.2, prior to 0.2 μM antisense oligonucleotide/lipofectin treatment for 4 hours. The medium was removed and the cells were gently washed with 5 ml of growth medium. The cells were then cultured in growth medium for seven to ten days. Surviving colonies were visualized by methylene blue staining and colonies of 50 or more cells were scored (Choy et al., 1988 and Huang and Wright, 1994). Results are summarized from 4 to 8 trials for each tumor cell line.

[5] = tested on: MDA-MB435-To.1 human Taxol-resistant breast adenocarcinoma cells; assay: Taxol-resistant breast adenocarcinoma MDA-MB435-To.1 growth in SCID mice; format: in vivo
Method: MDA-MB435-To.1 human Taxol-resistant breast adenocarcinoma cells (4×10^6 cells in 100 μl of PBS) were injected into the fat pad (inside of right leg) of 6-7 weeks old female SCD mice. After the size of tumor reached an approximate volume of 100 mm^3, 20 days post tumor cell injection, SEQ ID NO:1 was administered by bolus infusion into the tail vein every other day at 10 mg/kg 15 times. Control animals received saline alone for the same period. Antitumor effect of SEQ ID NO:1 was further compared to that of Cisplatin or Taxol alone (FIG. 15A). Cisplatin was administered intravenously once a week for four weeks at a dose of 4 mg/kg. Taxol was administered intravenously once a week for four weeks at a dose of 20 mg/kg. Antitumor activities were estimated by the inhibition of tumor volume, which was measured with caliper (FIG. 15B). Each point represents mean tumor volume calculated from 9-10 animals per experimental group. […] As expected, treatment with Taxol during the same period was ineffective against Taxol-resistant tumor.
MDA-MB435-To.1 human Taxol-resistant breast adenocarcinoma cells (4×10^6 cells in 100 μl of PBS) were injected into the fat pad (inside of right leg) of 6-7 weeks old female CB-17 SCID mice. After the size of tumor reached an approximate volume of 100 mm^3, 17 days post tumor cell injection, SEQ ID NO:1 was administered by bolus infusion into the tail vein every other day at 10 mg/kg. Control animals received saline alone for the same period. Antitumor effect of SEQ ID NO:1 was compared to that of Cisplatin alone and in combination. Cisplatin was administered intravenously once a week for four weeks at a dose of 4 mg/kg. Antitumor activities were estimated by the inhibition of tumor volume, which was measured with caliper (FIG. 15B). Each point represents mean tumor volume calculated from 10 animals per experimental group. At the end of the study the animals were sacrificed and tumors weighed (FIG. 15C).

[6] = tested on: CB7 Friend retrovirus-induced mouse Erytheroleukemia cells; assay: Survival of SCID mice bearing mouse erythroleukemia (CB7); format: in vivo; conditions: 10 mg/kg i.v. every second day, stopped at day 71; one mouse died at day 30 and another at day 54; untreated died within 36 days
Method: In vivo studies were conducted to assess the therapeutic potential of SEQ ID NO:1 in the treatment of mouse Erythroleukemia. CB7 Friend retrovirus-induced mouse Erytheroleukemia cells (5×10^6) collected from subconfluent logarithmically growing cultures were injected i.v. via the tail vein of each animal and disease was allowed to establish for 2 days. SEQ ID NO:1 in normal saline was administered by tail vein injections every second day at a dose of 10 mg/kg. Control animals received saline alone, without oligonucleotide. Treatment with SEQ ID NO:1 was stopped at day 71. Antitumor effects of SEQ ID NO:1 treatment were assessed by the examination of survival of mice (FIG. 19). All mice died as a consequence of tumor progression within 36 days when left untreated. All SEQ ID NO:1 treated animals, on the other hand, survived beyond day 71 except one mouse which died at day 30 and another at day 54.

In the case of “5′-CTCTAGCGTCTTAAAGCCGA-3′ (CTCTAGCGTCTTAAAGCCGA; chemistry not given here) [SEQ ID NO:1]”, the “sex effect on adverse effects” value [1] is reported as “more pronounced in males than females”, the “treatment-related effects in the high dose group” value ([1]; 50 mg/kg/day (reduced to 40 mg/kg/day), 14-day infusion) is reported as “severe adverse clinical signs and mortality; also recorded: high morbidity and mortality, reduced body weights and reduced food consumption” and the clinical pathology results ([1]; 2, 10, 50 mg/kg/day, 14 days) is reported as “dose-dependent anemia, thrombocytopenia, coagulopathic selectivity for APTT, and liver and kidney toxicity in both sexes”. For the same substance, the pathological findings ([1]; 2, 10, 50 mg/kg/day, 14 days) was “major treatment-related changes in numerous tissues and organs of the high dose animals, in most tissues and organs of the mid dose animals; and sporadically in the evaluated tissues and organs of the low dose animals”, the toxicity ([1]; continuously for 14 days at 10 mg/kg/day (59 mg/m^2/day)) was “Severe toxicity” and the “number of lung tumor nodules” value [2] was “significantly reduced the formation of lung colonies”. For the same substance, the “elimination from plasma (profile)” value [3] was “biphasic”, the “measurable in plasma post dose” value [3] was “up to 24 h” and the “plasma levels (AUC and Cmax) versus dose” value [3] was “increased in proportion to administered dose”. The “time of Cmax / maximum concentration post dose” value ([3]; iv) was 5 min, the “apparent terminal elimination phase t1/2” value ([3]; iv, 50 mg/kg) was 4.72 to 5.80 h and the plasma clearance ([3]; iv, 50 mg/kg) was 49.67-43.30 mL/kg·h. The “tumor growth / tumor weight” value [4] was “significant reduction of tumor weight”, the “inhibition in colony forming ability” value (H460 (lung)) was “greater than 60%” and the “delay in tumor growth compared with Cisplatin” value ([5]; first experiment, Cisplatin 4 mg/kg weekly as positive control) was “superior to the inhibitory effects observed with Cisplatin”. The “tumor weight / tumor growth” value ([5]; first experiment, start 20 days post injection, SEQ ID NO:1 10 mg/kg 15 times, Cisplatin 4 mg/kg, Taxol 20 mg/kg weekly for four weeks) was “significant reduction of tumor weight”, the “delay in tumor growth compared with Cisplatin” value ([5]; second experiment, CB-17 SCID mice) was “superior to the inhibitory effects observed with Cisplatin” and the “tumor weight / tumor growth” value ([5]; second experiment, CB-17 SCID mice, start 17 days post injection, SEQ ID NO:1 10 mg/kg every other day, Cisplatin 4 mg/kg weekly) was “significant reduction of tumor weight”. The survival of mice [6] was > 71 days.
